Test systems include IGROV1 ovarian; UACC-257 melanoma; HCT-15 colon; HT29 colon; OVCAR-5 ovarian; NCI-H226 lung; SF-295 CNS; A498 renal.
Common to all, as to test: NCI tumour cell line growth inhibition, 48 h

The values below come from PubChem BioAssay (NCI).

Values joined by “and” are separate entries in the source; they are usually repeats but may differ in a detail not shown here. Equal values may be shown once.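 In this assay, cells in 96-well plates receive the compound at five concentrations for 48 hours. Endpoints are linearly interpolated between the surrounding concentrations. Here, GI50 denotes the concentration required for 50% inhibition of growth. TGI: total growth inhibition.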

As for `O=C(Nc1cccc(-n2cc(-c3ccncc3)c(-c3cc(O)cc(Cl)c3)n2)c1)c1cc(C(F)(F)F)cc(C(F)(F)F)c1`, the GI50 in the test on IGROV1 ovarian is 7.96 µM; with UACC-257 melanoma it was 4.23 µM; in the test on HCT-15 colon it was 2.6 µM; in the test on HT29 colon it was 2500 nM; with OVCAR-5 ovarian it was 8.23 µM; in the test with NCI-H226 lung, 16.1 µM. The GI50 in the test with SF-295 CNS was 2.37 µM; in the test with A498 renal, 4.75 µM. Moreover, the TGI is over 100 µM in the test on IGROV1 ovarian; 51.2 µM with UACC-257 melanoma; 14.7 µM in the test with HCT-15 colon; 37.7 µM in the test with HT29 colon; 38.4 µM with OVCAR-5 ovarian; over 100 µM in the test on NCI-H226 lung. Further, the TGI was 7.15 µM in the test with SF-295 CNS and 90.8 µM in the test with A498 renal.

For the compound `Cc1cc(N=Nc2ccccc2C)ccc1N`, the GI50 in the test with IGROV1 ovarian was 5.1 µM; in the test on UACC-257 melanoma it was 20.2 µM; with OVCAR-5 ovarian, 15 µM; in the test on NCI-H226 lung, 10.3 µM; with A498 renal, 4.38 µM. For the same compound, the TGI is 48.3 µM and 20 µM in the test with IGROV1 ovarian; 38 µM and 44.9 µM in the test with UACC-257 melanoma; 25.2 µM and 33.4 µM in the test with HCT-15 colon; 33.3 µM and 38.2 µM in the test on HT29 colon; 41.3 µM and 37.6 µM with OVCAR-5 ovarian; 30.8 µM and 27.8 µM in the test on NCI-H226 lung. For the same compound, the TGI in the test with SF-295 CNS was 25.2 µM and 31.3 µM; in the test on A498 renal it was 44.3 µM and 23.8 µM.

As for `C(=N/N(Cc1ccccc1)Cc1ccccc1)/c1ccccc1`, the GI50 in the test on IGROV1 ovarian is over 100 µM; in the test on UACC-257 melanoma it was 96.9 µM; with HCT-15 colon, over 100 µM; in the test on HT29 colon, 24700 nM; with OVCAR-5 ovarian, over 100 µM; with NCI-H226 lung, over 100 µM. The GI50 in the test with SF-295 CNS was 44.5 µM; in the test with A498 renal, 94.9 µM. Besides, the TGI in the test on IGROV1 ovarian, in the test on UACC-257 melanoma, in the test with HCT-15 colon, in the test on HT29 colon, in the test with OVCAR-5 ovarian and in the test with NCI-H226 lung was over 100 µM throughout. Moreover, the TGI in the test on SF-295 CNS and with A498 renal was over 100 µM throughout.

Consider `CC1OC(OC2C(O)CC(OC3C(O)CC(OC4CCC5(C)C(CCC6C5CC(O)C5(C)C(C7=CC(=O)OC7)CCC65O)C4)OC3C)OC2C)CC(O)C1O` (stereo not drawn), for which the GI50 was 0.127 µM in the test with IGROV1 ovarian; 0.126 µM in the test on UACC-257 melanoma; 0.113 µM in the test on HCT-15 colon; 41.7 nM in the test on HT29 colon; 0.137 µM in the test on OVCAR-5 ovarian; 0.137 µM in the test on NCI-H226 lung. In addition, the figures for the GI50 in the test with SF-295 CNS and in the test on A498 renal were 0.0317 µM and 0.107 µM, respectively. Also, the TGI was 1.11 µM in the test with IGROV1 ovarian; 0.256 µM in the test with UACC-257 melanoma; 0.293 µM in the test on HCT-15 colon; 0.154 µM in the test with HT29 colon; 0.295 µM in the test with OVCAR-5 ovarian; 0.266 µM in the test on NCI-H226 lung. For the same compound, the TGI was 0.171 µM in the test with SF-295 CNS and 0.544 µM with A498 renal.

For `COC(=O)c1cncc(/C=C/c2c(C)cc(O)cc2C)c1`, the GI50 in the test with IGROV1 ovarian was over 19.8 µM; with UACC-257 melanoma, 14.6 µM; in the test with HCT-15 colon, 11.1 µM; in the test on HT29 colon it was over 15400 nM; with OVCAR-5 ovarian, over 24.1 µM; in the test on NCI-H226 lung it was over 12.7 µM. In addition, the figures for the GI50 with SF-295 CNS and in the test with A498 renal were over 19.1 µM and 11 µM, respectively. Further, the TGI in the test on IGROV1 ovarian, in the test with UACC-257 melanoma, in the test with HCT-15 colon, in the test with HT29 colon, in the test on OVCAR-5 ovarian and with NCI-H226 lung was over 25 µM throughout. The TGI in the test with SF-295 CNS and in the test on A498 renal was over 25 µM in each case.

`OC(C#Cc1ccccc1)(c1ccccc1)c1ccccc1`: the TGI with IGROV1 ovarian is over 100 µM; in the test on UACC-257 melanoma it was over 100 µM; with HCT-15 colon it was over 100 µM; in the test with HT29 colon, 78.4 µM; in the test on OVCAR-5 ovarian, over 100 µM; with NCI-H226 lung it was 87.3 µM. The TGI with SF-295 CNS came to 77.7 µM; with A498 renal, 83.4 µM.

For `C/C(=C\c1cnc(C)s1)[C@@H]1C[C@@H]2O[C@@H]2CCC[C@H](C)[C@H](O)[C@@H](C)C(=O)C(C)(C)[C@@H](O)CC(=O)O1`, the GI50 was 0.0103 µM in the test on IGROV1 ovarian; under 0.01 µM in the test with HCT-15 colon; under 10 nM in the test on HT29 colon; under 0.01 µM in the test with OVCAR-5 ovarian; 0.0102 µM with SF-295 CNS. The TGI in the test on IGROV1 ovarian, in the test with HCT-15 colon, in the test on HT29 colon, in the test on OVCAR-5 ovarian, in the test on NCI-H226 lung and in the test on SF-295 CNS was over 100 µM in each case.

Turning to `COc1ncnc(NS(=O)(=O)c2ccc(N=C3C(=O)N(CN4CCN(c5c(F)cc6c(=O)c(C(=O)O)cn(C7CC7)c6c5OC)CC4C)c4ccc(Br)cc43)cc2)c1OC` (stereo not drawn), the GI50 with IGROV1 ovarian was 17.3 µM; in the test with UACC-257 melanoma it was 16.9 µM; with HCT-15 colon it was 4.73 µM; in the test on HT29 colon it was 15600 nM; in the test on OVCAR-5 ovarian, 5 µM; in the test on NCI-H226 lung it was 15.3 µM. Further, the figures for the GI50 in the test on SF-295 CNS and in the test with A498 renal were 20.8 µM and 11.3 µM, respectively. Also, the TGI in the test with IGROV1 ovarian, in the test with UACC-257 melanoma, with HCT-15 colon, in the test with HT29 colon, in the test on OVCAR-5 ovarian and with NCI-H226 lung was over 50 µM in each case. Further, the TGI with SF-295 CNS and in the test on A498 renal was over 50 µM throughout.

Turning to `O=C(CCCCCCN1CC(=O)N2[C@@H](c3ccc(Cl)c(Cl)c3)c3[nH]c4ccccc4c3C[C@H]2C1=O)NO`, the GI50 in the test on IGROV1 ovarian is 1.32 µM; in the test on UACC-257 melanoma it was 3.81 µM; with HCT-15 colon, 10 µM; in the test on HT29 colon, 2930 nM; in the test with OVCAR-5 ovarian it was 3.86 µM; in the test on NCI-H226 lung it was 4.52 µM. Moreover, the GI50 in the test with SF-295 CNS was 3.66 µM; in the test on A498 renal it was 5.28 µM. The TGI in the test with IGROV1 ovarian is 5.07 µM; in the test with UACC-257 melanoma, 18.2 µM; in the test with HCT-15 colon, over 33.3 µM; in the test with HT29 colon, 9 µM; in the test with OVCAR-5 ovarian it was 13.4 µM; in the test on NCI-H226 lung, 12.2 µM. For the same compound, the TGI with SF-295 CNS amounted to 8 µM; in the test on A498 renal, 9.92 µM.
